# Patent US20240158418A1 (C4 Therapeutics, Inc., priority 2021, published 2024)
# Molecular target: T1, EGFR L858R-T790M (Homo sapiens, UniProt P00533, L858R/T790M)
# T1 construct: NCI-H1975 (harboring EGFR heterozygous L858R-T790M mutations); host or cells: NCI-H1975
# Assay: EGFR degradation, Total EGFR (L858R-specific) HTRF, NCI-H1975
# Assay type: cell-based
# Details: Table 9B; NCI-H1975 cells, 6 hours, Total EGFR HTRF; read-out: H1975 EGFR DC50
# How it was run: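 FRET signal from HTRF kits measured phospho-EGFR at pY1068 or total EGFR after 6 h treatment at 37 °C. Compounds ran as 11-point half-log dilutions from 10 μM in duplicate, in cells in phenol red-free RPMI with 10% FBS. Concentrations giving 50% inhibition or degradation were reported as IC50 or DC50.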
# T1 sequence (P00533 25-1210 T790M/L858R): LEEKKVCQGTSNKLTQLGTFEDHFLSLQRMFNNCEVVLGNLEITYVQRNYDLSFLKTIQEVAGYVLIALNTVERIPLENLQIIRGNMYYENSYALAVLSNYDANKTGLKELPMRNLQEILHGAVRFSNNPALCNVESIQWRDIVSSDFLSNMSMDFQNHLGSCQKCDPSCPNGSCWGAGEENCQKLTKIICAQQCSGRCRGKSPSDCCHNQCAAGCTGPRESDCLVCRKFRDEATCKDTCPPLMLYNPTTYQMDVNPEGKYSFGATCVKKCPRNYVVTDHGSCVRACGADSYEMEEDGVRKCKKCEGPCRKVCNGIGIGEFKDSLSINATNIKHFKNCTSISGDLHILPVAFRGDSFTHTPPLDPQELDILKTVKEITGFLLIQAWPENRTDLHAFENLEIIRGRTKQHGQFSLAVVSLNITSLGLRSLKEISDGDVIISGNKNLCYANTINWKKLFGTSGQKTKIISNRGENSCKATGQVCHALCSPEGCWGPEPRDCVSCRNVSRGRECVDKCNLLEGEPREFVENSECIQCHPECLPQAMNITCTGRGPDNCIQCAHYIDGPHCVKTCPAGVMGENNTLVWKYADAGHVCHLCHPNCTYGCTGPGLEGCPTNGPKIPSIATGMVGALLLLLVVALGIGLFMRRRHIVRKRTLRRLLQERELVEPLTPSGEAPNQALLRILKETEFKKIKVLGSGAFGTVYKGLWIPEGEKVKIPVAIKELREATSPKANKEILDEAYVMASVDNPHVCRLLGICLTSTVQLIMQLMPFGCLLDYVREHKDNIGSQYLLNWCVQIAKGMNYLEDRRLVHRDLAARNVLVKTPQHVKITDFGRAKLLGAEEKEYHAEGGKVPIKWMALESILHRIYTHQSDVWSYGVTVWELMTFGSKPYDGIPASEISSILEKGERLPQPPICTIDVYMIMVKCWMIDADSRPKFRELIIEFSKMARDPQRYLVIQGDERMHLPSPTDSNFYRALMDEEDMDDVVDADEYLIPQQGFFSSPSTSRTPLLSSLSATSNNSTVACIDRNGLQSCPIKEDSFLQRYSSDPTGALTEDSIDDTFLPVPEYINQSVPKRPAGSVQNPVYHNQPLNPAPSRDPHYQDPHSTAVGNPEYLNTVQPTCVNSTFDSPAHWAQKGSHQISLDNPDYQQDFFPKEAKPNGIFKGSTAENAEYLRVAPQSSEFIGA
row,SMILES,DC50 [µM]
1,"O=C1CC[C@H](Nc2ccc(N3CCC(O)(CC(=O)N4CC5(C4)CN(c4ccc(-c6cc(F)c7c(c6)C(=O)N(C(C(=O)Nc6nccs6)c6ncn8c6C[C@@H](F)C8)C7)cc4)C5)CC3)c(F)c2)C(=O)N1 (stereo partly drawn) [Compound 131, 2-[6-[4-[2-[2-[1-[4-[[(3S)-2,6-dioxo-3-piperidyl]amino]-2-fluoro-phenyl]-4-hydroxy-4-piperidyl]acetyl]-2,6-diazaspiro[3.3]heptan-6-yl]phenyl]-4-fluoro-1-oxo-isoindolin-2-yl]-2-[(6R)-6-fluoro-6,7-dihydro-5H-pyrrolo[1,2-c]imidazol-1-yl]-N-thiazol-2-yl-acetamide]",< 0.05
2,"O=C1CC[C@H](Nc2ccc(C3CCN(CC(=O)N4CC5(C4)CN(c4ccc(-c6cc(F)c7c(c6)C(=O)N(C(C(=O)Nc6nccs6)c6ncn8c6CCC8)C7)cn4)C5)CC3)c(F)c2)C(=O)N1 (stereo partly drawn) [Compound 95, 2-(6,7-dihydro-5H-pyrrolo[1,2-c]imidazol-1-yl)-2-(6-(6-(6-(2-(4-(4-(((S)-2,6-dioxopiperidin-3-yl)amino)-2-fluorophenyl)piperidin-1-yl)acetyl)-2,6-diazaspiro[3.3]heptan-2-yl)pyridin-3-yl)-4-fluoro-1-oxoisoindolin-2-yl)-N-(thiazol-2-yl)acetamide]",< 0.05
3,"O=C1CCC(Nc2ccc(N3CCC(O)(CC(=O)N4CC5(C4)CN(c4ccc(-c6ccc7cn(C(C(=O)Nc8nccs8)c8ncn9c8CCC9)nc7c6F)cn4)C5)CC3)cc2F)C(=O)N1 (stereo not drawn) [Compound 71, 2-(6,7-dihydro-5H-pyrrolo[1,2-c]imidazol-1-yl)-2-[6-[6-[2-[2-[1-[4-[(2,6-dioxo-3-piperidyl)amino]-3-fluoro-phenyl]-4-hydroxy-4-piperidyl]acetyl]-2,6-diazaspiro[3.3]heptan-6-yl]-3-pyridyl]-7-fluoro-indazol-2-yl]-N-thiazol-2-yl-acetamide]",< 0.05
4,"O=C1CCC(Nc2ccc(-c3ccc(CC(=O)N4CCC(Oc5ccc(-c6cc(F)c7c(c6)C(=O)N(C(C(=O)Nc6nccs6)c6ncn8c6CCC8)C7)cc5)CC4)cc3)cc2)C(=O)N1 (stereo not drawn) [Compound 81, 2-(6,7-dihydro-5H-pyrrolo[1,2-c]imidazol-1-yl)-2-(6-(4-((1-(2-(4′-((2,6-dioxopiperidin-3-yl)amino)-[1,1′-biphenyl]-4-yl)acetyl)piperidin-4-yl)oxy)phenyl)-4-fluoro-1-oxoisoindolin-2-yl)-N-(thiazol-2-yl)acetamide]",0.05 to 0.15
5,"Cn1nc(N2CCC(=O)NC2=O)c2ccc(C3CCN(CC(=O)N4CCC(n5cc(-c6cc(F)c7c(c6)C(=O)N(C(C(=O)Nc6nccs6)c6ncn8c6CCC8)C7)cn5)CC4)CC3(F)F)cc21 (stereo not drawn) [Compound 105, 2-(6,7-dihydro-5H-pyrrolo[1,2-c]imidazol-1-yl)-2-(6-(1-(1-(2-(4-(3-(2,4-dioxotetrahydropyrimidin-1(2H)-yl)-1-methyl-1H-indazol-6-yl)-3,3-difluoropiperidin-1-yl)acetyl)piperidin-4-yl)-1H-pyrazol-4-yl)-4-fluoro-1-oxoisoindolin-2-yl)-N-(thiazol-2-yl)acetamide]",< 0.05
6,"Cn1nc(N2CCC(=O)NC2=O)c2ccc(C3CCN(CC(=O)N4CC5(C4)CN(c4ccc(-c6cc(F)c7c(c6)C(=O)N(C(C(=O)Nc6ccccn6)c6ncn8c6CCC8)C7)cc4)C5)C4(CC4)C3)cc21 (stereo not drawn) [Compound 153, 2-(6,7-dihydro-5H-pyrrolo[1,2-c]imidazol-1-yl)-2-[6-[4-[2-[2-[7-[3-(2,4-dioxohexahydropyrimidin-1-yl)-1-methyl-indazol-6-yl]-4-azaspiro[2.5]octan-4-yl]acetyl]-2,6-diazaspiro[3.3]heptan-6-yl]phenyl]-4-fluoro-1-oxo-isoindolin-2-yl]-N-(2-pyridyl)acetamide]",0.05 to 0.15
